Experimental data as given in patent publication US20240398783A1, “Compounds and Pharmaceutical Compositions Comprising Inhibitors of Amyloid Peptide Interactions with Glycosaminoglycans, Methods of Treatment and Use Thereof” (Gismo Therapeutics, Inc., priority 2021, published 2024).
Counter-ions that a name gives are not always drawn.

Target: Amyloid-beta(1-40) binding to heparin (HS-GAG) (Homo sapiens, UniProt P05067)
Assay: Inhibition of Amyloid-beta(1-40) binding to immobilized heparin-BSA (ELISA)
Set-up: species or system porcine
Settings: 30 μM compound; Abeta(1-40), heparin-BSA; read-out: Abeta40/Heparin Activity (% inhibition class)
Procedure: Porcine intestinal mucosa heparin conjugated to Bovine Serum Albumin (Heparin-BSA) was prepared as described (Najjam, S. et al. 1997, Cytokine 12, 1013-1022). Heparin is a sulfated HS-GAG and is commonly used as a HS-GAG in biochemical and binding assays (Lindahl, U. and Kjellen, L. (2013) ibid). Heparin-BSA at 0.01 mg/ml in Phosphate Buffered Saline (PBS; pH 7.4) was added to a 96 well polystyrene ELISA plate (NUNC Cat. No. 449824; 100 μl per well) and incubated Over Night (ON) at 4 degrees Celsius. For negative controls, ELISA plates were coated with BSA instead of Heparin-BSA, using the same procedure. Following the incubation, the plate was washed consecutively, by immersion, with de-ionized water and PBS (pH 7.4). The ELISA plate was then blocked with nonfat milk (2%, 200 μl per well) for 2 hours at Room Temperature (RT) with gentle shaking. Following blocking, the plate was washed with de-ionized water then PBS (pH 7.4). GBAPs were dissolved and diluted in PBS (pH 6.5, supplemented with 0.1% BSA) at desired concentrations, added to the ELISA plates containing immobilized Heparin-BSA (100 μl per well) and incubated for 2 hours at RT with gentle shaking. Following incubation, the plate was washed with de-ionized water and three times with PBS (pH 6.5) plus Tween. Bound GBAP was detected by a monoclonal antibody specific for that GBAP, followed by incubation with secondary antibody conjugated to horseradish peroxidase (HRP). Antibody was diluted in PBS (pH 6.5 supplemented with 1% BSA). Following each incubation with antibody, the plate was washed with de-ionized water and three times with PBS (pH 6.5) wash buffer containing 0.1% Tween. The peroxidase substrate chromogen, TMB (Dako Cat. No. S1599) was added (100 μl per well) to the ELISA plate and incubated at room temperature. After 5 minutes ELISA Stop Solution (hydrochloric acid 1N, sulfuric acid 3N) was added (100 μl per well) to stop the peroxidase catalyzed colorimetric reaction. The Optical Density of the samples was measured at 450 nm using an ELISA plate reader (BioTek Synergy H1). Following color development, the % inhibition compared to control (BSA-coated plates) was determined. IC-50s were calculated using GraphPad Prism software.
The assay was performed as described in Example 43, with the following modifications. Following to coating the plates with Heparin-BSA, plates were washed as described. The compounds were dissolved in DMSO at 10 mM final concentration and further diluted prior to assay. DMSO concentration in the screening well was up to 2%. Individual compounds were co-incubated with Beta-amyloid peptides on plates containing immobilized heparin. Beta-amyloid (1-42) was purchased from rPeptide (Cat. No. A1163) and used to prepare oligomers according to Stine et al., 2003 (J Biol Chem. 278(13):11612-22) as follows. 1,1,1,3,3,3-Hexafluoro-2-propanol- (HFIP; Sigma Cat. No. 105228)-treated Beta amyloid (1-42) was dissolved in dry DMSO (Sigma Cat. No. D2650) to 5 mM concentration. Dissolved Beta amyloid (1-42) was then diluted to 100 μM in ice-cold cell culture medium (phenol red-free Ham's F-12; Caisson Labs, Cat. No. HFL05), followed immediately by vortexing for 30 seconds, and incubating at 4 degrees Celsius for 24 h. Resulting Beta amyloid (1-42) oligomers were centrifuged at 12,000 rpm for 10 min at 4 degree Celsius to remove aggregates. Oligomers were then quickly frozen and kept in aliquots at −80 degrees Celsius. Beta-amyloid (1-40) from rPeptide (Cat No. A1153) was dissolved in DMSO, quickly frozen and kept in aliquots at −80 degrees Celsius. Beta-amyloid (1-42) oligomers or Beta-amyloid (1-40) diluted in PBS (pH 6.5, supplemented with BSA, 0.1%) were added to the ELISA plate (100 μl per well) and incubated for 2 hours at RT with gentle shaking. Following the incubation, the plate was washed with de-ionized water and three times with PBS (pH 6.5) plus Tween. […]

Sequence of Amyloid-beta(1-40) binding to heparin (HS-GAG) (P05067 672-711): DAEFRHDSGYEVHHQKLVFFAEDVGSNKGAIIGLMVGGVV

Structure (SMILES) | inhibition at 30 µM
C[n+]1ccc(/C=N\Nc2ccnc3ccccc23)cc1 [Compound 9, (Z)-1-methyl-4-((2-(quinolin-4-yl)hydrazono)methyl)pyridin-1-ium iodide] | < 30%
Fc1ccc2c(N/N=C/c3ccc(CN4CCOCC4)cc3)ccnc2c1 [Compound 6, (E)-4-(4-((2-(7-fluoroquinolin-4-yl)hydrazono)methyl)benzyl)morpholine] | > 30%
CN(C)Cc1cc(Nc2ccnc3cc(Cl)ccc23)ccn1 [Compound 45, 7-chloro-N-(2-((dimethylamino)methyl)pyridin-4-yl)quinolin-4-amine] | < 30%

Same assay, conditions: Abeta40/Heparin Activity (IC-50), Abeta(1-40), co-incubation on heparin-BSA plates

Structure (SMILES) | IC50
Fc1ccc2c(N/N=C/c3ccc(-n4ccnc4)cc3)ccnc2c1 [Compound 5, (E)-4-(2-(4-(1H-imidazol-1-yl)benzylidene)hydrazinyl)-7-fluoroquinoline] | 3.33 µM
C/C(=N\Nc1ncnc2cc(Cl)ccc12)c1ccc(-n2cnc(C)c2C)nc1 [Compound 16, 7-chloro-4-(2-(1-(6-(4,5-dimethyl-1H-imidazol-1-yl)pyridin-3-yl)ethylidene)hydrazineyl)quinazoline phosphate] | 4.37 µM
Cc1ncn(-c2ccc(Nc3ncnc4cc(Cl)ccc34)cn2)c1C [Compound 25, 7-chloro-N-(6-(4,5-dimethyl-1H-imidazol-1-yl)pyridin-3-yl)quinazolin-4-amine] | 1.7 µM
COc1cc(Nc2nncc3cc(Cl)ccc23)cnc1-n1cnc(C)c1C [Compound 31, 6-chloro-N-(6-(4,5-dimethyl-1H-imidazol-1-yl)-5-methoxypyridin-3-yl)phthalazin-1-amine phosphoric acid salt] | 23.3 µM
Cc1ncn(-c2ccc(/C=N/Nc3ccnc4cc(Cl)ccc34)cc2)c1C [Compound 2, (E)-7-chloro-4-((E)-(4-(4,5-dimethyl-1H-imidazol-1-yl)benzylidene)hydrazono)-1,4-dihydroquinoline] | 22.9 µM
Clc1ccc2c(Nc3ccc(-n4cncn4)nc3)ncnc2c1 [Compound 34, N-(6-(1H-1,2,4-triazol-1-yl)pyridin-3-yl)-7-chloroquinazolin-4-amine phosphoric acid salt] | 34.8 µM
Clc1ccc2c(N/N=C/c3ccc(-n4ccnc4)cc3)ccnc2c1 [Compound 38, 4-(2-(4-(1H-imidazol-1-yl)benzylidene)hydrazineyl)-7-chloroquinoline dihydrochloride] | 1.28 µM
CN1CCN(Cc2ccc(/C=N/Nc3ccnc4cc(Cl)ccc34)cc2)CC1 [Compound 7, (E)-7-chloro-4-(2-(4-((4-methylpiperazin-1-yl)methyl)benzylidene)hydrazinyl)quinolone] | 25.2 µM
Clc1ccc2c(Nc3ccc(-n4cncn4)nc3)ccnc2c1 [Compound 44, N-(6-(1H-1,2,4-triazol-1-yl)pyridin-3-yl)-7-chloroquinolin-4-amine] | 19.3 µM
C[N+](C)(C)Cc1ccc(/C=N\Nc2ccnc3ccc(Cl)cc23)cc1 [Compound 4, (Z)-1-(4-((2-(6-chloroquinolin-4-yl)hydrazineylidene)methyl)phenyl)—N,N,N-trimethylmethanaminium iodide] | 51.3 µM
COc1ccc2c(NN=Cc3ccc(-n4ccnc4)c(C)c3)ccnc2c1 [Compound 12, 4-(2-(4-(1H-imidazol-1-yl)-3-methylbenzylidene)hydrazineyl)-7-methoxyquinoline] | 17.9 µM
CC(=NNc1ccnc2cc(Cl)ccc12)c1ccc(-n2cnc(C)c2C)nc1 [Compound 22, 7-chloro-4-(2-(1-(6-(4,5-dimethyl-1H-imidazol-1-yl)pyridin-3-yl)ethylidene)hydrazineyl)quinoline] | 16.3 µM
C/C(=N\Nc1ncnc2cc(Cl)ccc12)c1ccc(-n2cc[n+](C)c2)nc1 [Compound 17, (E)-1-(5-(1-(2-(7-chloroquinazolin-4-yl)hydrazineylidene)ethyl)pyridin-2-yl)-3-methyl-1H-imidazol-3-ium iodide phosphoric acid salt] | 28.1 µM
C/C(=N\Nc1ncnc2ccccc12)c1ccc(-n2cc(C)nc2C)nc1 [Compound 19, (E)-4-(2-(1-(6-(2,4-dimethyl-1H-imidazol-1-yl)pyridin-3-yl)ethylidene)hydrazineyl)quinazoline] | 10.2 µM

Same assay, conditions: Abeta(1-40), co-incubation on heparin-BSA plates; read-out: Abeta40/Heparin Activity (IC-50)

IC50 | Structure (SMILES)
32.7 µM | Clc1ccc2c(Nc3ccc(-n4ccnc4)nc3)ncnc2c1 [Compound 41, N-(6-(1H-imidazol-1-yl)pyridin-3-yl)-7-chloroquinazolin-4-amine]
3.12 µM | CC(=NNc1ncnc2cc(Cl)ccc12)c1ccnc(-n2cnc(C)c2C)c1 [Compound 28, 7-chloro-4-(2-(1-(2-(4,5-dimethyl-1H-imidazol-1-yl)pyridin-4-yl)ethylidene)hydrazineyl)quinazoline]
3.67 µM | Cc1cc(-n2ccnc2)ccc1/C=N/Nc1ccnc2cc(Cl)ccc12 [Compound 1, (E)-4-((E)-(4-(1H-imidazol-1-yl)-2-methylbenzylidene)hydrazono)-7-chloro-1,4-dihydroquinoline]

Structure (SMILES) | IC50
C/C(=N\Nc1nncc2cc(Cl)ccc12)c1ccc(-n2cc(C)nc2C)nc1 [Compound 24, (E)-6-chloro-1-(2-(1-(6-(2,4-dimethyl-1H-imidazol-1-yl)pyridin-3-yl)ethylidene)hydrazineyl)phthalazine] | 6.42 µM

Same assay, conditions: read-out: Abeta40/Heparin Activity (% inhibition class)

Structure (SMILES) | inhibition at 30 µM
Cc1ncn(-c2ncc(Nc3ncnc4cc(Cl)ccc34)cc2O)c1C [Compound 40, 5-((7-chloroquinazolin-4-yl)amino)-2-(4,5-dimethyl-1H-imidazol-1-yl)pyridin-3-ol phosphoric acid salt] | < 30%
C(=N\Nc1ccc2c3c(cccc13)CC2)/c1ccc(-n2ccnc2)cc1 [Compound 8, (E)-1-(4-((2-(1,2-dihydroacenaphthylen-5-yl)hydrazineylidene)methyl)phenyl)-1H-imidazole] | < 30%
COc1cc2nccc(N/N=C/c3ccc(-n4ccnc4)c(OC)c3)c2cc1OC [Compound 13, (E)-4-(2-(4-(1H-imidazol-1-yl)-3-methoxybenzylidene)hydrazineyl)-6,7-dimethoxyquinoline phosphate] | < 30%
C/C(=N\Nc1ncnc2cc(Cl)ccc12)c1cccc(N2CCN(C)CC2)c1 [Compound 30, 7-chloro-4-(2-(1-(3-(4-methylpiperazin-1-yl)phenyl)ethylidene)hydrazineyl)quinazoline] | > 30%
COc1cc2nccc(NN=Cc3ccc(-n4ccnc4)c(C)c3)c2cc1OC [Compound 11, 4-(2-(4-(1H-imidazol-1-yl)-3-methylbenzylidene)hydrazineyl)-6,7-dimethoxyquinoline hydrochloride] | > 30%
C[n+]1ccn(-c2ccc(Nc3ncnc4cc(Cl)ccc34)cn2)c1 [Compound 43, 1-(5-((7-chloroquinazolin-4-yl)amino)pyridin-2-yl)-3-methyl-1H-imidazol-3-ium iodide phosphoric acid salt] | < 30%
COc1cc(Nc2cncc3cc(Cl)ccc23)cnc1-n1cnc(C)c1C [Compound 33, 7-chloro-N-(6-(4,5-dimethyl-1H-imidazol-1-yl)-5-methoxypyridin-3-yl)isoquinolin-4-amine phosphoric acid salt] | < 30%
